How the values were obtained:
[1] = target: T1, TRα (Homo sapiens, UniProt P10827); test: Thyroid-hormone reporter-gene assay, TRα (Gal4 DBD hybrid, luciferase, HEK293); assay type: cell-based; conditions: reporter cells derived from HEK293, 24 hr incubation, luciferase readout
T1 construct: expressed in transfected cells; host or cells: HEK293
T1 sequence (P10827 128-410 isoform P10827-2 limits assumed): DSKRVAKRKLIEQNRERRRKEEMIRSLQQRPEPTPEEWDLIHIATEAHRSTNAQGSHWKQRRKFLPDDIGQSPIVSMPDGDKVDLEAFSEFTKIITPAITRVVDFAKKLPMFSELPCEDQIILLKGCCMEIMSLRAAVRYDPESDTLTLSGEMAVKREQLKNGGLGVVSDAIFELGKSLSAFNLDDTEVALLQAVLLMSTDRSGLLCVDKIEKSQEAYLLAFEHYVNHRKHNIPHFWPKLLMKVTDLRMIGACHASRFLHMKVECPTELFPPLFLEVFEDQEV
Experimental: (§1) Compounds were tested for thyroid-hormone receptor activity using TR reporter-gene assays. Reporter cells used in the assays express a TR-receptor hybrid (either TRα or TRβ) in which the native N-terminal DNA binding domain (DBD) has been replaced with that of the yeast Gal4 DBD. The reporter gene, firefly luciferase, is functionally linked to the Gal4 upstream activation sequence (UAS). Both cell lines were derived from human embryonic kidney (HEK293).
(§2) A suspension of reporter cells was prepared in cell recovery medium containing 10% charcoal-stripped FBS, and dispensed into assay plates. The plates were pre-incubated for 6 hours in a cell culture incubator (37° C./5% CO2/85% humidity).
(§3) These intermediate stocks were subsequently diluted directly into compound screening medium containing 10% charcoal-stripped FBS to generate “2×-concentration” treatment media (containing 0.2, 0.4 or 0.8% DMSO).
(§4) At the end of the pre-incubation period, culture media were discarded from the assay plates, and all wells received 100 μl of compound screening medium. 100 μl of each of the previously prepared “2×-concentration” treatment media were dispensed into duplicate assay wells, thereby achieving the desired final treatment concentrations. The final concentration of DMSO in all assay wells was 0.1, 0.2 or 0.4%. Assay plates were incubated for 24 hr in a cell culture incubator (37° C./5% CO2/85% humidity).
(§5) At the 24 h assay endpoint, treatment media were discarded and […] of luciferase detection reagent was added. Relative luminometer units (RLUs) were quantified from each assay well.

[2] = target: T2, TRβ (Homo sapiens, UniProt P10828); test: Thyroid-hormone reporter-gene assay, TRβ (Gal4 DBD hybrid, luciferase, HEK293); assay type: cell-based; conditions: for T3-SI, selectivity index (SI) calculated as EC50 (TRα)/EC50 (TRβ): TRβ over TRα selectivity from reporter-gene EC50 values; for EC50: reporter cells derived from HEK293, 24 hr incubation, luciferase readout
T2 construct: expressed in transfected cells; host or cells: HEK293
T2 sequence (P10828 217-461 limits assumed): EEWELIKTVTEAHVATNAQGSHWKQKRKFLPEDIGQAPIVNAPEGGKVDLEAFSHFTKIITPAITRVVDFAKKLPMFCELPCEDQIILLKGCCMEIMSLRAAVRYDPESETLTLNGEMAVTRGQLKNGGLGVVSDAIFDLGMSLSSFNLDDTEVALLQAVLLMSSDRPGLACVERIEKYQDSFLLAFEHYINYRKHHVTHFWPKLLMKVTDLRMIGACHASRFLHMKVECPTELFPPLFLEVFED
Experimental: as §1, §2, §3, §4, §5

SMILES | EC50 [1] [nM] | T3-SI, selectivity index (SI) calculated as EC50 (TRα)/EC50 (TRβ) [2] | EC50 [2] [nM]
O=C(O)COc1cc(Cl)c(Cc2ccc(O)c(-c3cc(C(F)(F)F)ccc3F)c2)c(Cl)c1 [Compound 45, 2-(3,5-dichloro-4-((2′-fluoro-6-hydroxy-5′-(trifluoromethyl)-[1,1′-biphenyl]-3-yl)methyl)phenoxy)acetic Acid] | 100 to 1000 | ++ (3X < T3-SI ≤ 30X) | 10 to 100
O=C(O)COc1cc(Cl)c(Cc2ccc(O)c(-c3cccc(C(F)(F)F)c3)c2)c(Cl)c1 [Compound 1, 2-(3,5-dichloro-4-((6-hydroxy-3′-(trifluoromethyl)-[1,1′-biphenyl]-3-yl)methyl)phenoxy)acetic Acid] | 100 to 1000 | ++ (3X < T3-SI ≤ 30X) | 100 to 1000
CCc1cccc(-c2cc(Cc3c(Cl)cc(OCC(=O)O)cc3Cl)ccc2O)c1 [Compound 3, 2-(3,5-dichloro-4-((3′-ethyl-6-hydroxy-[1,1′-biphenyl]-3-yl)methyl)phenoxy)acetic Acid] | > 1000 | +++ (T3-SI > 30X) | 100 to 1000
O=C(O)COc1cc(Cl)c(Cc2ccc(O)c(-c3cccc(C(F)(F)F)c3F)c2)c(Cl)c1 [Compound 49, 2-(3,5-dichloro-4-((2′-fluoro-6-hydroxy-3′-(trifluoromethyl)-[1,1′-biphenyl]-3-yl)methyl)phenoxy)acetic Acid] | > 1000 | ++ (3X < T3-SI ≤ 30X) | 100 to 1000
COc1cccc(-c2cc(Cc3c(Cl)cc(OCC(=O)O)cc3Cl)ccc2O)c1 [Compound 7, 2-(3,5-dichloro-4-((6-hydroxy-3′-methoxy-[1,1′-biphenyl]-3-yl)methyl)phenoxy)acetic Acid] | > 1000 | ++ (3X < T3-SI ≤ 30X) | > 1000
CC(=O)c1cccc(-c2cc(Cc3c(Cl)cc(OCC(=O)O)cc3Cl)ccc2O)c1 [Compound 11, 2-(4-((3′-acetyl-6-hydroxy-[1,1′-biphenyl]-3-yl)methyl)-3,5-dichlorophenoxy)acetic Acid] | > 1000 |  | > 1000
C=Cc1cccc(-c2cc(Cc3c(Cl)cc(OCC(=O)O)cc3Cl)ccc2O)c1 [Compound 21, 2-(3,5-dichloro-4-((6-hydroxy-3′-vinyl-[1,1′-biphenyl]-3-yl)methyl)phenoxy)acetic Acid] | > 1000 | ++ (3X < T3-SI ≤ 30X) | 100 to 1000
CCCc1cccc(-c2cc(Cc3c(Cl)cc(OCC(=O)O)cc3Cl)ccc2O)c1 [Compound 16, 2-(3,5-dichloro-4-((6-hydroxy-3′-propyl-[1,1′-biphenyl]-3-yl)methyl)phenoxy)acetic Acid] | > 1000 | +++ (T3-SI > 30X) | 100 to 1000
CC(C)c1cccc(-c2cc(Cc3c(Cl)cc(OCC(=O)O)cc3Cl)ccc2O)c1 [Compound 13, 2-(3,5-dichloro-4-((6-hydroxy-3′-isopropyl-[1,1′-biphenyl]-3-yl)methyl)phenoxy)acetic Acid] | > 1000 | +++ (T3-SI > 30X) | 100 to 1000
N#Cc1cccc(-c2cc(Cc3c(Cl)cc(OCC(=O)O)cc3Cl)ccc2O)c1 [Compound 19, 2-(3,5-dichloro-4-((3′-cyano-6-hydroxy-[1,1′-biphenyl]-3-yl)methyl)phenoxy)acetic Acid] | 100 to 1000 | ++ (3X < T3-SI ≤ 30X) | 10 to 100
O=C(O)COc1cc(Cl)c(Cc2ccc(O)c(-c3cccc(CC(F)(F)F)c3)c2)c(Cl)c1 [Compound 26, 2-(3,5-dichloro-4-((6-hydroxy-3′-(2,2,2-trifluoroethyl)-[1,1′-biphenyl]-3-yl)methyl)phenoxy)acetic Acid] | > 1000 | +++ (T3-SI > 30X) | 100 to 1000

The remaining lines, values ahead:

EC50 [1] [nM] | T3-SI, selectivity index (SI) calculated as EC50 (TRα)/EC50 (TRβ) [2] | EC50 [2] [nM] | SMILES
> 1000 | +++ (T3-SI > 30X) | 100 to 1000 | O=C(O)COc1cc(Cl)c(Cc2ccc(O)c(C(c3ccc(F)cc3)C3CCC3)c2)c(Cl)c1 (centres unmarked) [Compound 109, 2-(3,5-dichloro-4-(3-(cyclobutyl(4-fluorophenyl)methyl)-4-hydroxybenzyl)phenoxy)acetic Acid]
100 to 1000 | ++ (3X < T3-SI ≤ 30X) | 10 to 100 | Cc1cc(OCC(=O)O)cc(Cl)c1Cc1ccc(O)c(Cc2ccc(F)cc2)c1 [Compound 115, 2-(3-chloro-4-(3-(4-fluorobenzyl)-4-hydroxybenzyl)-5-methylphenoxy) acetic Acid]
> 1000 | ++ (3X < T3-SI ≤ 30X) | > 1000 | O=C(O)COc1cc(Cl)c(Cc2ccc(O)c(Cc3ccncc3)c2)c(Cl)c1 [Compound 82, 2-(3,5-dichloro-4-(4-hydroxy-3-(pyridin-4-ylmethyl)benzyl)phenoxy) acetic Acid]
> 1000 | ++ (3X < T3-SI ≤ 30X) | > 1000 | CCc1ccc(F)c(-c2cc(Cc3c(Cl)cc(OCC(=O)O)cc3Cl)ccc2O)c1 [Compound 51, 2-(3,5-dichloro-4-((5′-ethyl-2′-fluoro-6-hydroxy-[1,1′-biphenyl]-3-yl)methyl)phenoxy)acetic Acid]
100 to 1000 | ++ (3X < T3-SI ≤ 30X) | 10 to 100 | O=C(O)COc1cc(Cl)c(Cc2ccc(O)c(C(CC(F)(F)F)c3ccc(F)cc3)c2)c(Cl)c1 (centres unmarked) [Compound 127, 2-(3,5-dichloro-4-(4-hydroxy-3-(3,3,3-trifluoro-1-(4-fluorophenyl)propyl)benzyl)phenoxy)acetic Acid]
100 to 1000 | ++ (3X < T3-SI ≤ 30X) | 10 to 100 | O=C(O)COc1cc(Cl)c(Cc2ccc(O)c(C(c3ccc(F)cc3)C(F)(F)F)c2)c(Cl)c1 (centres unmarked) [Compound 125]
100 to 1000 | ++ (3X < T3-SI ≤ 30X) | 10 to 100 | CCC(c1ccc(F)cc1)c1cc(Cc2c(Cl)cc(OCC(=O)O)cc2Cl)ccc1O (centres unmarked) [Compound 98, 2-(3,5-dichloro-4-(3-(1-(4-fluorophenyl)propyl)-4-hydroxybenzyl)phenoxy)acetic Acid]
> 1000 | ++ (3X < T3-SI ≤ 30X) | > 1000 | O=C(O)COc1cc(Cl)c(Cc2ccc(O)c(C3CCc4cc(F)ccc43)c2)c(Cl)c1 (centres unmarked) [Compound 113, 2-(3,5-dichloro-4-(3-(5-fluoro-2,3-dihydro-1H-inden-1-yl)-4-hydroxybenzyl)phenoxy)acetic Acid]
> 1000 | ++ (3X < T3-SI ≤ 30X) | 100 to 1000 | O=C(O)COc1cc(Cl)c(Cc2ccc(O)c(-c3cccc(OC(F)F)c3F)c2)c(Cl)c1 [Compound 56, 2-(3,5-dichloro-4-((3′-(difluoromethoxy)-2′-fluoro-6-hydroxy-[1,1′-biphenyl]-3-yl)methyl)phenoxy)acetic Acid]
> 1000 | +++ (T3-SI > 30X) | 100 to 1000 | CCCC(c1ccc(F)cc1)c1cc(Cc2c(Cl)cc(OCC(=O)O)cc2Cl)ccc1O (centres unmarked) [Compound 102, 2-(3,5-dichloro-4-(3-(1-(4-fluorophenyl)butyl)-4-hydroxybenzyl)phenoxy) acetic Acid]
100 to 1000 | ++ (3X < T3-SI ≤ 30X) | 10 to 100 | CC(C)(c1ccc(F)cc1)c1cc(Cc2c(Cl)cc(OCC(=O)O)cc2Cl)ccc1O [Compound 105, 2-(3,5-dichloro-4-(3-(2-(4-fluorophenyl)propan-2-yl)-4-hydroxybenzyl)phenoxy)acetic Acid]
100 to 1000 | ++ (3X < T3-SI ≤ 30X) | 100 to 1000 | O=C(O)COc1cc(Cl)c(Cc2ccc(O)c(C3CCCc4cc(F)ccc43)c2)c(Cl)c1 (centres unmarked) [Compound 111, 2-(3,5-dichloro-4-(3-(6-fluoro-1,2,3,4-tetrahydronaphthalen-1-yl)-4-hydroxybenzyl)phenoxy)acetic Acid]

— US11667606B2, “Thyromimetics” (Autobahn Therapeutics, Inc., priority 2019, dated 2023)
